Reference: the NIST ThermoML archive (doi:10.1016/j.fluid.2016.02.004)
Numbers after ± are expanded uncertainties.

Experiment: activity coefficient (dimensionless); of the first substance listed, at infinite dilution; xn = mol fraction of the nth substance listed
Settings: 318.15 K; Liquid; Chromatography; x1 = 0

activity coefficient	SMILES
39 ± 2.7	C=CCCCCC [1-heptene] + CCCCn1cc[n+](C)c1.N#CN=C=[N-]
8.24 ± 0.56	C#CCCCCC [1-heptyne] + CCCCn1cc[n+](C)c1.N#CN=C=[N-]
5.43 ± 0.37	C#CCCCC [1-hexyne] + CCCCn1cc[n+](C)c1.N#CN=C=[N-]
17.3 ± 1.2	C=CCCC [1-pentene] + CCCCn1cc[n+](C)c1.N#CN=C=[N-]
3.7 ± 0.3	C#CCCC [1-pentyne] + CCCCn1cc[n+](C)c1.N#CN=C=[N-]
111 ± 8	CC(C)CC(C)(C)C [2,2,4-trimethylpentane] + CCCCn1cc[n+](C)c1.N#CN=C=[N-]
53.6 ± 3.7	CCC(C)(C)C [2,2-dimethylbutane] + CCCCn1cc[n+](C)c1.N#CN=C=[N-]
18.1 ± 1.2	CCOC(C)(C)C [2-ethoxy-2-methylpropane] + CCCCn1cc[n+](C)c1.N#CN=C=[N-]
10.7 ± 0.7	CCC(C)(C)OC [2-methoxy-2-methylbutane] + CCCCn1cc[n+](C)c1.N#CN=C=[N-]
7.13 ± 0.49	COC(C)(C)C [2-methoxy-2-methylpropane] + CCCCn1cc[n+](C)c1.N#CN=C=[N-]
1.08 ± 0.07	CC(C)CO [2-methyl-1-propanol] + CCCCn1cc[n+](C)c1.N#CN=C=[N-]
1.11 ± 0.07	CC(C)(C)O [2-methylpropan-2-ol] + CCCCn1cc[n+](C)c1.N#CN=C=[N-]
53.7 ± 3.7	CCC(C)CC [3-methylpentane] + CCCCn1cc[n+](C)c1.N#CN=C=[N-]
1.1 ± 0.07	CCCCO [butan-1-ol] + CCCCn1cc[n+](C)c1.N#CN=C=[N-]
1.13 ± 0.07	CCC(C)O (stereo not drawn) [butan-2-ol] + CCCCn1cc[n+](C)c1.N#CN=C=[N-]
1.61 ± 0.11	CCCC=O [butanal] + CCCCn1cc[n+](C)c1.N#CN=C=[N-]
314 ± 22	CCCCCCCCCC [decane] + CCCCn1cc[n+](C)c1.N#CN=C=[N-]
20.6 ± 1.4	CC(C)OC(C)C [diisopropyl ether] + CCCCn1cc[n+](C)c1.N#CN=C=[N-]
20.4 ± 1.4	CCCOCCC [dipropyl ether] + CCCCn1cc[n+](C)c1.N#CN=C=[N-]

The remaining lines, values behind:

SMILES	activity coefficient
Cc1ccccc1C [1,2-dimethylbenzene] + CCCCn1cc[n+](C)c1.N#CN=C=[N-]	3.82 ± 0.26
Cc1cccc(C)c1 [1,3-dimethylbenzene] + CCCCn1cc[n+](C)c1.N#CN=C=[N-]	4.65 ± 0.32
Cc1ccc(C)cc1 [1,4-dimethylbenzene] + CCCCn1cc[n+](C)c1.N#CN=C=[N-]	4.44 ± 0.3
C1COCCO1 [1,4-dioxane] + CCCCn1cc[n+](C)c1.N#CN=C=[N-]	1.06 ± 0.07
C=CCCCCCCCC [1-decene] + CCCCn1cc[n+](C)c1.N#CN=C=[N-]	134 ± 9
CCC[N+](=O)[O-] [1-nitropropane] + CCCCn1cc[n+](C)c1.N#CN=C=[N-]	1.26 ± 0.08
C#CCCCCCC [1-octyne] + CCCCn1cc[n+](C)c1.N#CN=C=[N-]	12.5 ± 0.9
C=C(C)c1ccccc1 [(1-methylethenyl)benzene] + CCCCn1cc[n+](C)c1.N#CN=C=[N-]	3.3 ± 0.2
CC(C)=O [acetone] + CCCCn1cc[n+](C)c1.N#CN=C=[N-]	1 ± 0.06
CC#N [acetonitrile] + CCCCn1cc[n+](C)c1.N#CN=C=[N-]	0.781 ± 0.051
c1ccccc1 [benzene] + CCCCn1cc[n+](C)c1.N#CN=C=[N-]	1.87 ± 0.13
C1CCCCCC1 [cycloheptane] + CCCCn1cc[n+](C)c1.N#CN=C=[N-]	32.6 ± 2.2
C1CCCCC1 [cyclohexane] + CCCCn1cc[n+](C)c1.N#CN=C=[N-]	25.8 ± 1.8
C1=CCCCC1 [cyclohexene] + CCCCn1cc[n+](C)c1.N#CN=C=[N-]	11.4 ± 0.8
C1CCCCCCC1 [cyclooctane] + CCCCn1cc[n+](C)c1.N#CN=C=[N-]	42.4 ± 2.9
C1CCCC1 [cyclopentane] + CCCCn1cc[n+](C)c1.N#CN=C=[N-]	17.4 ± 1.2
CCOCC [diethyl ether] + CCCCn1cc[n+](C)c1.N#CN=C=[N-]	6.88 ± 0.47

Same assay, conditions: 328.15 K; Liquid; Chromatography; x1 = 0

activity coefficient	SMILES
38.5 ± 2.6	C=CCCCCC [1-heptene] + CCCCn1cc[n+](C)c1.N#CN=C=[N-]
8.61 ± 0.59	C#CCCCCC [1-heptyne] + CCCCn1cc[n+](C)c1.N#CN=C=[N-]
5.76 ± 0.39	C#CCCCC [1-hexyne] + CCCCn1cc[n+](C)c1.N#CN=C=[N-]
17.3 ± 1.2	C=CCCC [1-pentene] + CCCCn1cc[n+](C)c1.N#CN=C=[N-]
3.94 ± 0.27	C#CCCC [1-pentyne] + CCCCn1cc[n+](C)c1.N#CN=C=[N-]
105 ± 7	CC(C)CC(C)(C)C [2,2,4-trimethylpentane] + CCCCn1cc[n+](C)c1.N#CN=C=[N-]
51.7 ± 3.5	CCC(C)(C)C [2,2-dimethylbutane] + CCCCn1cc[n+](C)c1.N#CN=C=[N-]
18.4 ± 1.3	CCOC(C)(C)C [2-ethoxy-2-methylpropane] + CCCCn1cc[n+](C)c1.N#CN=C=[N-]
11.1 ± 0.8	CCC(C)(C)OC [2-methoxy-2-methylbutane] + CCCCn1cc[n+](C)c1.N#CN=C=[N-]
7.47 ± 0.51	COC(C)(C)C [2-methoxy-2-methylpropane] + CCCCn1cc[n+](C)c1.N#CN=C=[N-]
1.08 ± 0.07	CC(C)CO [2-methyl-1-propanol] + CCCCn1cc[n+](C)c1.N#CN=C=[N-]
1.14 ± 0.07	CC(C)(C)O [2-methylpropan-2-ol] + CCCCn1cc[n+](C)c1.N#CN=C=[N-]
51.7 ± 3.5	CCC(C)CC [3-methylpentane] + CCCCn1cc[n+](C)c1.N#CN=C=[N-]
1.11 ± 0.07	CCCCO [butan-1-ol] + CCCCn1cc[n+](C)c1.N#CN=C=[N-]
1.14 ± 0.07	CCC(C)O (stereo not drawn) [butan-2-ol] + CCCCn1cc[n+](C)c1.N#CN=C=[N-]
1.67 ± 0.11	CCCC=O [butanal] + CCCCn1cc[n+](C)c1.N#CN=C=[N-]
285 ± 20	CCCCCCCCCC [decane] + CCCCn1cc[n+](C)c1.N#CN=C=[N-]
20.9 ± 1.4	CC(C)OC(C)C [diisopropyl ether] + CCCCn1cc[n+](C)c1.N#CN=C=[N-]
20.5 ± 1.4	CCCOCCC [dipropyl ether] + CCCCn1cc[n+](C)c1.N#CN=C=[N-]

The remaining lines, values behind:

SMILES	activity coefficient
Cc1ccccc1C [1,2-dimethylbenzene] + CCCCn1cc[n+](C)c1.N#CN=C=[N-]	3.97 ± 0.27
Cc1cccc(C)c1 [1,3-dimethylbenzene] + CCCCn1cc[n+](C)c1.N#CN=C=[N-]	4.82 ± 0.33
Cc1ccc(C)cc1 [1,4-dimethylbenzene] + CCCCn1cc[n+](C)c1.N#CN=C=[N-]	4.62 ± 0.31
C1COCCO1 [1,4-dioxane] + CCCCn1cc[n+](C)c1.N#CN=C=[N-]	1.13 ± 0.07
C=CCCCCCCCC [1-decene] + CCCCn1cc[n+](C)c1.N#CN=C=[N-]	128 ± 9
CCC[N+](=O)[O-] [1-nitropropane] + CCCCn1cc[n+](C)c1.N#CN=C=[N-]	1.31 ± 0.09
C#CCCCCCC [1-octyne] + CCCCn1cc[n+](C)c1.N#CN=C=[N-]	13 ± 0.9
C=C(C)c1ccccc1 [(1-methylethenyl)benzene] + CCCCn1cc[n+](C)c1.N#CN=C=[N-]	3.53 ± 0.24
CC(C)=O [acetone] + CCCCn1cc[n+](C)c1.N#CN=C=[N-]	1.05 ± 0.07
CC#N [acetonitrile] + CCCCn1cc[n+](C)c1.N#CN=C=[N-]	0.813 ± 0.053
c1ccccc1 [benzene] + CCCCn1cc[n+](C)c1.N#CN=C=[N-]	1.95 ± 0.13
C1CCCCCC1 [cycloheptane] + CCCCn1cc[n+](C)c1.N#CN=C=[N-]	31.2 ± 2.1
C1CCCCC1 [cyclohexane] + CCCCn1cc[n+](C)c1.N#CN=C=[N-]	25 ± 1.7
C1=CCCCC1 [cyclohexene] + CCCCn1cc[n+](C)c1.N#CN=C=[N-]	11.4 ± 0.8
C1CCCCCCC1 [cyclooctane] + CCCCn1cc[n+](C)c1.N#CN=C=[N-]	40.4 ± 2.8
C1CCCC1 [cyclopentane] + CCCCn1cc[n+](C)c1.N#CN=C=[N-]	16.9 ± 1.2
CCOCC [diethyl ether] + CCCCn1cc[n+](C)c1.N#CN=C=[N-]	7.11 ± 0.48

Same assay, conditions: 338.15 K; Liquid; Chromatography; x1 = 0

activity coefficient	SMILES
38.1 ± 2.6	C=CCCCCC [1-heptene] + CCCCn1cc[n+](C)c1.N#CN=C=[N-]
9.02 ± 0.62	C#CCCCCC [1-heptyne] + CCCCn1cc[n+](C)c1.N#CN=C=[N-]
6.12 ± 0.42	C#CCCCC [1-hexyne] + CCCCn1cc[n+](C)c1.N#CN=C=[N-]
17.3 ± 1.2	C=CCCC [1-pentene] + CCCCn1cc[n+](C)c1.N#CN=C=[N-]
4.16 ± 0.28	C#CCCC [1-pentyne] + CCCCn1cc[n+](C)c1.N#CN=C=[N-]
101 ± 7	CC(C)CC(C)(C)C [2,2,4-trimethylpentane] + CCCCn1cc[n+](C)c1.N#CN=C=[N-]
50.1 ± 3.4	CCC(C)(C)C [2,2-dimethylbutane] + CCCCn1cc[n+](C)c1.N#CN=C=[N-]
18.7 ± 1.3	CCOC(C)(C)C [2-ethoxy-2-methylpropane] + CCCCn1cc[n+](C)c1.N#CN=C=[N-]
11.5 ± 0.8	CCC(C)(C)OC [2-methoxy-2-methylbutane] + CCCCn1cc[n+](C)c1.N#CN=C=[N-]
7.8 ± 0.53	COC(C)(C)C [2-methoxy-2-methylpropane] + CCCCn1cc[n+](C)c1.N#CN=C=[N-]
1.09 ± 0.07	CC(C)CO [2-methyl-1-propanol] + CCCCn1cc[n+](C)c1.N#CN=C=[N-]
1.16 ± 0.07	CC(C)(C)O [2-methylpropan-2-ol] + CCCCn1cc[n+](C)c1.N#CN=C=[N-]
50 ± 3.4	CCC(C)CC [3-methylpentane] + CCCCn1cc[n+](C)c1.N#CN=C=[N-]
1.12 ± 0.07	CCCCO [butan-1-ol] + CCCCn1cc[n+](C)c1.N#CN=C=[N-]
1.16 ± 0.07	CCC(C)O (stereo not drawn) [butan-2-ol] + CCCCn1cc[n+](C)c1.N#CN=C=[N-]
1.74 ± 0.12	CCCC=O [butanal] + CCCCn1cc[n+](C)c1.N#CN=C=[N-]
260 ± 18	CCCCCCCCCC [decane] + CCCCn1cc[n+](C)c1.N#CN=C=[N-]
21.2 ± 1.4	CC(C)OC(C)C [diisopropyl ether] + CCCCn1cc[n+](C)c1.N#CN=C=[N-]
20.5 ± 1.4	CCCOCCC [dipropyl ether] + CCCCn1cc[n+](C)c1.N#CN=C=[N-]

More lines, now with the values behind:

SMILES	activity coefficient
Cc1ccccc1C [1,2-dimethylbenzene] + CCCCn1cc[n+](C)c1.N#CN=C=[N-]	4.12 ± 0.28
Cc1cccc(C)c1 [1,3-dimethylbenzene] + CCCCn1cc[n+](C)c1.N#CN=C=[N-]	5.03 ± 0.34
Cc1ccc(C)cc1 [1,4-dimethylbenzene] + CCCCn1cc[n+](C)c1.N#CN=C=[N-]	4.82 ± 0.33
C1COCCO1 [1,4-dioxane] + CCCCn1cc[n+](C)c1.N#CN=C=[N-]	1.21 ± 0.08
C=CCCCCCCCC [1-decene] + CCCCn1cc[n+](C)c1.N#CN=C=[N-]	123 ± 8
CCC[N+](=O)[O-] [1-nitropropane] + CCCCn1cc[n+](C)c1.N#CN=C=[N-]	1.36 ± 0.09
C#CCCCCCC [1-octyne] + CCCCn1cc[n+](C)c1.N#CN=C=[N-]	13.4 ± 0.9
C=C(C)c1ccccc1 [(1-methylethenyl)benzene] + CCCCn1cc[n+](C)c1.N#CN=C=[N-]	3.79 ± 0.26
CC(C)=O [acetone] + CCCCn1cc[n+](C)c1.N#CN=C=[N-]	1.11 ± 0.07
CC#N [acetonitrile] + CCCCn1cc[n+](C)c1.N#CN=C=[N-]	0.844 ± 0.054
c1ccccc1 [benzene] + CCCCn1cc[n+](C)c1.N#CN=C=[N-]	2.03 ± 0.14
C1CCCCCC1 [cycloheptane] + CCCCn1cc[n+](C)c1.N#CN=C=[N-]	30.1 ± 2.1
C1CCCCC1 [cyclohexane] + CCCCn1cc[n+](C)c1.N#CN=C=[N-]	24.3 ± 1.7
C1=CCCCC1 [cyclohexene] + CCCCn1cc[n+](C)c1.N#CN=C=[N-]	11.3 ± 0.8
C1CCCCCCC1 [cyclooctane] + CCCCn1cc[n+](C)c1.N#CN=C=[N-]	38.6 ± 2.6
C1CCCC1 [cyclopentane] + CCCCn1cc[n+](C)c1.N#CN=C=[N-]	16.3 ± 1.1
CCOCC [diethyl ether] + CCCCn1cc[n+](C)c1.N#CN=C=[N-]	7.32 ± 0.5
